Experimental data taken from paper PMC3349712, “DipA, a Pore-Forming Protein in the Outer Membrane of Lyme Disease Spirochetes Exhibits Specificity for the Permeation of Dicarboxylates” (PLoS ONE, 2012).

Molecular target: T1, DipA (Borreliella burgdorferi, UniProt O51379)
T1 construct: gene BB_0418; native protein from outer membrane fraction of B. burgdorferi B31 delta-p66, hydroxyapatite chromatography in Genapol, untagged; predicted 20-residue signal peptide removed; 36 kDa; minor truncated OspA/OspB in fraction
Experiment: biochemical
Assay type: binding
From the text: planar lipid bilayer, titration of channel conductance block on DipA

T1 sequence (O51379 entry or part of it): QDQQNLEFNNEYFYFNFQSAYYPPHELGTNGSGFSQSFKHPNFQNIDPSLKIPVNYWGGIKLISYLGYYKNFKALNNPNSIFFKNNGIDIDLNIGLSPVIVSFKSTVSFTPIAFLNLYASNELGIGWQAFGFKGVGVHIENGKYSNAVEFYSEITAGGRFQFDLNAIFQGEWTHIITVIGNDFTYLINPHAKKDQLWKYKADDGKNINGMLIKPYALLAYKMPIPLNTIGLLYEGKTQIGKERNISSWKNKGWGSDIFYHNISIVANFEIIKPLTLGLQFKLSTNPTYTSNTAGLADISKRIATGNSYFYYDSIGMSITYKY

Row | SMILES | Kd [µM]
1 | O=C(O)C[C@H](O)C(=O)O [Malate] | 769
2 | O=C(O)CCC(=O)O [Succinate] | 164
3 | O=C(O)CC(O)(CC(=O)O)C(=O)O [Citrate] | 76.9
4 | O=C(O)CCC(=O)C(=O)O [2-Oxoglutarate] | 286
5 | N[C@@H](CC(=O)O)C(=O)O [Aspartate] | 769
6 | O=C(O)/C=C\C(=O)O [Maleate] | 35.3
7 | O=C(O)CC(=O)C(=O)O [Oxaloacetate] | 50.3
8 | N[C@@H](CCC(=O)O)C(=O)O [Glutamate] | 800
9 | CC(=O)C(=O)O [Pyruvate] | 2130
10 | O=C(O)c1ccccc1C(=O)O [Phthalate] | 175
11 | O=C(O)/C=C/C(=O)O [Fumarate] | 2380
